Test results as given in publication PMC11992225, “Antibacterial compounds against non-growing and intracellular bacteria” (npj Antimicrobials and Resistance, 2025).
Converted amounts (≈) assume the structure as drawn. “And” between values parts separate entries of the source, which are not always exact repeats. Identical values can stand only once.

Assays:
[1] = system: S. aureus DSM2569; assay: MIC, standard microdilution assay, growing S. aureus; type: cell-based, Staphylococcus aureus; settings: Staphylococcus aureus, DSM2569; S. aureus; CA-MHB pH 7.4; read-out: MIC (μM) CA-MHB
Summary of the method: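 Standard microdilution protocol, triplicate wells. For S. flexneri the growth medium is TSB. The other three strains are grown in HEPES-buffered (40 mM, pH 7.4) CA-MHB, and UPEC is also run at pH 5.5 in LPM containing 30 mM MES.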

[2] = system: non-growing P. aeruginosa DSM1117; assay: Dose-dependent killing analysis (CFU spot-plating) of stationary-phase P. aeruginosa; type: cell-based, Pseudomonas aeruginosa; settings: for log10(CFU/ml) after treatment / killing, average Δlog10(CFU/ml) / log10(CFU/ml) of treated nongrowing bacteria (single replicates): P. aeruginosa; for log10(CFU/ml) after treatment: individual replicates; for reduction of bacterial counts, non-growing P. aeruginosa: at 2.5 µM, 1:4 CA-MHB pH 7.4, 24 h treatment; for log10(CFU/ml) of treated nongrowing bacteria (single replicates): before treatment 8.887
Method: The cultures were grown and treated for 24 h in 1:4 CA-MHB (pH 7.4).
(§1) For survival analysis, bacteria were cultivated as described for the dose–response dilution-regrowth assay. Assays with UPEC were conducted at the CBCS screening facility using 96-well plates with a 200 μl sample volume, and compounds were dispensed using the Echo® (Labcyte) system. P. aeruginosa and S. aureus samples were treated according to the protocol used for the dilution-regrowth experiments. Treated samples were serially diluted 10-fold in PBS, and 10 μl drops were spot-plated onto rectangular LB agar plates using either a Beckman NXP robot (for UPEC) or an Integra VIAFLO96 electronic pipette (for P. aeruginosa and S. aureus). The LB agar plates were incubated overnight at 37 °C and scanned. Colonies were counted at the spots of the lowest dilution where individual colonies could be accurately distinguished. Each colony was manually marked on a separate image layer using the GNU Image Manipulation Program, and counted using NIST’s Integrated Colony Enumerator (NICE 1.4) software. The experiments were performed in three biological replicates.

[3] = system: non-growing UPEC CFT073; assay: Dilution-regrowth assay (screen, hit validation, dose-response) on stationary-phase UPEC; type: cell-based, Escherichia coli; settings: for Regrowth, OD600 at 6h or 8h after dilution into drug-free medium: average; for EC50: Escherichia coli, E. coli, pH 7.4, regrowth delay of non-growing bacteria, 1:4 CA-MHB, 24 h treatment, OD600 6 h after 2500-fold dilution, read-out: EC50
Summary of the method: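 Regrowth (OD600 after 6 h, 37 °C) of diluted non-growing CFT073, following 24 h compound treatment of 24 h stationary cultures, defines activity relative to untreated control. Screen at 20 µM, validation at 20, 10, 5 µM (duplicates), dose–response in three biological replicates fitted by five-parameter logistic.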

[4] = system: non-growing UPEC CFT073; assay: Dose-dependent killing analysis (CFU spot-plating) of stationary-phase UPEC; type: cell-based, Escherichia coli; settings: for log10(CFU/ml) after treatment: individual replicates; for log10(CFU/ml) of treated nongrowing bacteria (single replicates): before treatment 8.977
Method: To differentiate between these scenarios, we used CFU counting by agar plating to assess the bactericidal effect on non-growing bacteria. […] Conversely, if no significant reduction in CFU is observed, the regrowth delay is due to PAE without killing. […] Fluoroquinolones are known to cause PAE after treatment of growing bacterial cultures.
as §1

[5] = concentration 2.5, vs CFU before treatment
[6] = concentration 10, vs CFU before treatment
[7] = E. coli in 1:4 CA-MHB (pH 7.4), concentration 0.25
[8] = E. coli in 1:4 CA-MHB (pH 7.4), concentration 0.5
[9] = E. coli in 1:4 CA-MHB (pH 7.4), concentration 1
[10] = E. coli in 1:4 CA-MHB (pH 7.4), concentration 2.5
[11] = E. coli in 1:4 CA-MHB (pH 7.4), concentration 5
[12] = E. coli in 1:4 CA-MHB (pH 7.4), concentration 10
[13] = E. coli in 1:4 CA-MHB (pH 7.4), concentration 30
[14] = E. coli in LPM (pH 5.5), concentration 0.25
[15] = E. coli in LPM (pH 5.5), concentration 0.5
[16] = E. coli in LPM (pH 5.5), concentration 1
[17] = E. coli in LPM (pH 5.5), concentration 2.5
[18] = E. coli in LPM (pH 5.5), concentration 5
[19] = E. coli in LPM (pH 5.5), concentration 10
[20] = E. coli in LPM (pH 5.5), concentration 30
[21] = E. coli in 1:4 CA-MHB (pH 7.4), drug concentration 0.25
[22] = E. coli in 1:4 CA-MHB (pH 7.4), drug concentration 0.5

Row | Compound | MIC [1] [µM] | log10(CFU/ml) after treatment ([2]; concentration 2.5) | killing, average Δlog10(CFU/ml) [2, 5] | log10(CFU/ml) after treatment ([2]; concentration 10) | killing, average Δlog10(CFU/ml) [2, 6] | reduction of bacterial counts, non-growing P. aeruginosa [2] | Regrowth, OD600 at 6h or 8h after dilution into drug-free medium [3, 9] | Regrowth, OD600 at 6h or 8h after dilution into drug-free medium [3, 10] | Regrowth, OD600 at 6h or 8h after dilution into drug-free medium [3, 11] | Regrowth, OD600 at 6h or 8h after dilution into drug-free medium [3, 12] | Regrowth, OD600 at 6h or 8h after dilution into drug-free medium [3, 13] | Regrowth, OD600 at 6h or 8h after dilution into drug-free medium [3, 16] | Regrowth, OD600 at 6h or 8h after dilution into drug-free medium [3, 17] | Regrowth, OD600 at 6h or 8h after dilution into drug-free medium [3, 18] | Regrowth, OD600 at 6h or 8h after dilution into drug-free medium [3, 19] | Regrowth, OD600 at 6h or 8h after dilution into drug-free medium [3, 20] | EC50 [3] [nM] | log10(CFU/ml) after treatment [4, 9] | log10(CFU/ml) after treatment [4, 10] | log10(CFU/ml) after treatment [4, 11] | also measured
1 | CO/N=C1\CN(c2nc3c(cc2F)c(=O)c(C(=O)O)cn3C2CC2)CC1CN (stereo not shown) [Gemifloxacin] | 0.125 (≈ 0.0487 µg/mL) | =<4 log10(CFU/ml) (2×) and 4.954 log10(CFU/ml) | 4.569 log10(CFU/ml) | =<4 log10(CFU/ml) (2×) and 4.477 log10(CFU/ml) | 4.728 log10(CFU/ml) | more than four | 0.206 | 0.090 | 0.086 | 0.083 | 0.082 | 0.562 | 0.529 | 0.513 | 0.417 | 0.143 | 752 | 8.699 log10(CFU/ml) and 8.079 log10(CFU/ml) and 7.301 log10(CFU/ml) | 8.230 log10(CFU/ml) and 7.602 log10(CFU/ml) and 7.301 log10(CFU/ml) | 7.903 log10(CFU/ml) and 7.415 log10(CFU/ml) and 7.322 log10(CFU/ml) | log10(CFU/ml) after treatment ([2]; concentration 0.1): 8.477 log10(CFU/ml) and 8.778 log10(CFU/ml) and 8.114 log10(CFU/ml); killing, average Δlog10(CFU/ml) ([2]; concentration 0.1, vs CFU before treatment): 0.431 log10(CFU/ml); log10(CFU/ml) after treatment ([2]; concentration 0.5): 7.699 log10(CFU/ml) (2×) and 7.477 log10(CFU/ml); killing, average Δlog10(CFU/ml) ([2]; concentration 0.5, vs CFU before treatment): 1.262 log10(CFU/ml); Regrowth, OD600 at 6h or 8h after dilution into drug-free medium [3, 7]: 0.556; Regrowth, OD600 at 6h or 8h after dilution into drug-free medium [3, 8]: 0.511; Regrowth, OD600 at 6h or 8h after dilution into drug-free medium [3, 14]: 0.559; Regrowth, OD600 at 6h or 8h after dilution into drug-free medium [3, 15]: 0.564; log10(CFU/ml) after treatment [4, 7]: 9.342 log10(CFU/ml) and 9.204 log10(CFU/ml) and 8.505 log10(CFU/ml); log10(CFU/ml) after treatment [4, 8]: 8.845 log10(CFU/ml) and 8.778 log10(CFU/ml) and 8.000 log10(CFU/ml); log10(CFU/ml) after treatment [4, 12]: 8.146 log10(CFU/ml) and 7.041 log10(CFU/ml) and 6.602 log10(CFU/ml); log10(CFU/ml) after treatment [4, 14]: 6.778 log10(CFU/ml) and 7.146 log10(CFU/ml) and 8.322 log10(CFU/ml); log10(CFU/ml) after treatment [4, 15]: 7.000 log10(CFU/ml) and 7.255 log10(CFU/ml) and 8.301 log10(CFU/ml); log10(CFU/ml) after treatment [4, 16]: 7.041 log10(CFU/ml) and 7.362 log10(CFU/ml) and 8.079 log10(CFU/ml); log10(CFU/ml) after treatment [4, 17]: 6.778 log10(CFU/ml) and 7.255 log10(CFU/ml) and 8.230 log10(CFU/ml); log10(CFU/ml) after treatment [4, 18]: 7.230 log10(CFU/ml) and 7.380 log10(CFU/ml) and 8.146 log10(CFU/ml); log10(CFU/ml) after treatment [4, 19]: 7.176 log10(CFU/ml) (2×) and 8.230 log10(CFU/ml)
2 | Cc1oc(=O)oc1CN1CCN(c2cc3c(cc2F)c(=O)c(C(=O)O)c2n3C(C)S2)CC1 (stereo not shown) [Prulifloxacin] | 4 (≈ 1.85 µg/mL) | =<4 log10(CFU/ml) (2×) and 4.602 log10(CFU/ml) | 4.687 log10(CFU/ml) | =<4 log10(CFU/ml) | 4.887 log10(CFU/ml) | more than four | 0.198 | 0.109 | 0.093 | 0.094 | 0.092 | 0.586 | 0.570 | 0.549 | 0.564 | 0.416 | 571 | 9.041 log10(CFU/ml) (2×) and 8.398 log10(CFU/ml) | 8.845 log10(CFU/ml) and 8.230 log10(CFU/ml) and 7.903 log10(CFU/ml) | 8.477 log10(CFU/ml) and 7.699 log10(CFU/ml) and 7.176 log10(CFU/ml) | killing, average Δlog10(CFU/ml) ([2]; drug concentration 0.1): 0.555 log10(CFU/ml); log10(CFU/ml) of treated nongrowing bacteria (single replicates) ([2]; drug concentration 0.1): 8.477 log10(CFU/ml) (2×) and 8.041 log10(CFU/ml); killing, average Δlog10(CFU/ml) ([2]; drug concentration 0.5): 3.168 log10(CFU/ml); log10(CFU/ml) of treated nongrowing bacteria (single replicates) ([2]; drug concentration 0.5): 5.778 log10(CFU/ml) and 6.602 log10(CFU/ml) and 4.778 log10(CFU/ml); reduction of bacterial counts, stationary phase P. aeruginosa ([2]; at 0.5 µM, 24 h treatment): more than four; log10(CFU/ml) after treatment [4, 12]: 7.903 log10(CFU/ml) and 7.176 log10(CFU/ml) (2×); killing, average Δlog10(CFU/ml) [4, 21]: 0.155 log10(CFU/ml); log10(CFU/ml) of treated nongrowing bacteria (single replicates) [4, 21]: 9.322 log10(CFU/ml) and 8.845 log10(CFU/ml) and 8.301 log10(CFU/ml); killing, average Δlog10(CFU/ml) [4, 22]: 0.462 log10(CFU/ml); log10(CFU/ml) of treated nongrowing bacteria (single replicates) [4, 22]: 8.903 log10(CFU/ml) and 8.301 log10(CFU/ml) and 8.342 log10(CFU/ml)
